Several values for one entry are separate records, joined by “and”; a condition that tells them apart may be missing. Equal entries are not always repeated.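 How tested: cells in 96-well plates exposed to compound for 48 hours at five concentrations. Abbreviation: GI50, concentration required for 50% inhibition of growth. TGI is the concentration that stops growth completely.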

This test concerns MDA-MB-468 breast. The test is described as follows: growth of human tumour cells (NCI), 48 h.
For the molecule `O=C(CN(C1CCCCC1)C1CCCCC1)Nc1ccc(S(=O)(=O)c2ccc(NC(=O)CN(C3CCCCC3)C3CCCCC3)cc2)cc1`, the GI50 is 1040 nM and the TGI came to 2930 nM.
`CCN1C(=O)N(CC)C2C1NC(=S)N2/N=C/C=C/c1cccs1` (stereo not drawn): the GI50 was 198 nM.
Regarding `Nc1nc(Nc2ccccc2)c2ncn(Cc3cc4c(cc3Br)OCO4)c2n1`, the GI50 was below 10 nM and the TGI was determined as 18200 nM.
The corresponding values for `N#CC1(C2SCCS2=O)C2=C(C(=O)c3ccccc3C2=O)N2CCCC21` (stereo not drawn) are 467 nM and 1900 nM.
For `CN1CCc2c(Sc3ccc(C(=O)NO)cc3)c3ccccc3n2C1`, the GI50 was 1120 nM and the TGI was found to be 2920 nM.
The corresponding values for `c1ccc2c3ccn4cc5c(cc4c-3nc2c1)CCCC5` are 1390 nM and 3600 nM.
In the same order, the values of `COc1cc2cn3c4ccc(O)cc4[nH]c(=O)c3c2cc1OC` are 20 nM and 56.8 nM.
The corresponding values for `CN(C)c1ccc2nc3ccc(=O)cc-3sc2c1` are 1490 nM and 6990 nM.
`Cc1n(Cc2ccc3ccccc3c2)cc[n+]1Cc1ccc2ccccc2c1`: the GI50 was 252 nM and the TGI was found to be 819 nM.
The corresponding values for `Nc1nc(Br)nc2c1ncn2C1CC(O)C(CO)O1` (stereo not drawn) are above 100000 nM and above 100000 nM.
The corresponding values for `CCCCCc1c(C)[nH]c(/C=C2\N=C(c3ccc[nH]3)C=C2CC)c1C` are 21.5 nM and 90.4 nM.
The corresponding values for `COc1ccc(CNc2c3ccccc3nc3ccccc23)cc1OC` are 1580 nM and 4140 nM.
In the case of `C#CC(=O)Nc1cccc(Nc2nc3c(c(NCc4ccccc4)n2)CCCC3)c1`, the GI50 was 168 nM and the TGI is 573 nM.
As to `O=C(CCCN1CC=C(n2c(=O)[nH]c3ccccc32)CC1)c1ccc(F)cc1`, the GI50 is 18800 nM and the TGI was found to be 59500 nM.
In the case of `CC(=O)Oc1ccc(Nc2c3ccccc3nc3ccccc23)cc1`, the GI50 was 913 nM and the TGI amounted to 3010 nM.
In the same order, the values of `CC(=O)Oc1ccccc1C(=O)N=C1[Se]CCN1C(=O)c1ccccc1OC(C)=O` are 740 nM and 2670 nM.
In the same order, the values of `Cc1c[n+](Cc2ccc3ccccc3c2)cn1Cc1ccc2ccccc2c1` are 362 nM and 1350 nM.
The corresponding values for `Cc1ccc(Nc2nc(N)c(C(=O)c3ccc(C#N)cc3)s2)cc1` are 229 nM and 663 nM.
For the molecule `O=C(N/N=C\c1cc(Br)ccc1O)c1ccncc1`, the GI50 was 1070 nM and the TGI is 5510 nM.
Take `O=C(Nc1cccc(Cl)c1)c1cc2ccccc2cc1O`: the GI50 was 2200 nM and 1910 nM; the TGI is 10400 nM and 6670 nM.
In the case of `CCN(CC)CCOc1ccc(/C(=C(\C)c2ccc(F)c(OC)c2)c2ccc(Cl)cc2)cc1`, the GI50 was 1910 nM and the TGI worked out at 4230 nM.
In the same order, the values of `O=C(Nc1ccc(Cl)cc1F)c1cc(Br)ccc1O` are 1130 nM and 4450 nM.
With `Cc1sc2nc(NCCc3c[nH]c4ccc(Cl)cc34)[nH]c(=O)c2c1C`, the GI50 is 2130 nM and the TGI came to 4680 nM.
The corresponding values for `C#C[C@]1(O)CC[C@H]2[C@@H]3CC=C4c5sc(Nc6ccccc6)nc5CC[C@]4(C)[C@H]3CC[C@@]21C` are 1710 nM and 4250 nM.
The corresponding values for `Cc1[nH]n(-c2cccc(Cl)c2)c(=O)c1/C=C1\C=Nc2ccc(Br)cc21` are 3970 nM and 29200 nM.
In the same order, the values of `O=c1[nH]c2cc(Cl)ccc2n1C1CCN(CCCC(c2ccc(F)cc2)c2ccc(F)cc2)CC1` are 1650 nM and 3140 nM.
`COC(=O)[C@@H](NC(=O)[C@@H](OC)[C@@H]1Cc2cc3cc(OC4CC(OC5CC(O)C(O)C(C)O5)C(O)C(C)O4)c(C)c(O)c3c(O)c2C(=O)[C@H]1OC1CC(OC2CC(OC3CC(C)(O)C(O)C(C)O3)C(O)C(C)O2)C(O)C(C)O1)C(C)C` (stereo partly drawn): the GI50 was 131 nM and the TGI turned out to be 2600 nM.
With `Cc1cc(NC(=O)c2ccc(C)c(Nc3nccc(-c4cccnc4)n3)c2)cc(-n2cnc(C)c2)c1`, the GI50 is 1220 nM and the TGI was 3270 nM.
In the same order, the values of `Cc1c(C2Nc3ccccc3C2C)[nH]c2ccccc12` (stereo not drawn) are 10400 nM and 27800 nM.
Turning to `CC(=O)Oc1ccccc1C(=O)N=C1[Se]CCCN1C(=O)c1ccccc1OC(C)=O`, the GI50 was 3380 nM and the TGI was 10900 nM.
The corresponding values for `CCN(CC)CC(C)(C)C(=O)/C=C/c1ccc(Cl)c(Cl)c1` are 1690 nM and 3420 nM.
In the same order, the values of `Cc1ccc2c(n1)C(=O)C(Cl)=C(Nc1ccc(C(F)(F)F)cc1)C2=O` are 1890 nM and 4000 nM.
On to `NC(=O)C(=CNc1nc(-c2ccc(Cl)c(Cl)c2)cs1)C(N)=O`, for which the GI50 is above 100000 nM and the TGI is above 100000 nM.
Turning to `CCc1cccc2c3c(sc12)C(c1ccc(Cl)cc1)C(C#N)=C(/N=C/c1ccc(Cl)cc1)O3` (stereo not drawn), the GI50 is 565 nM and the TGI was 2460 nM.
In the same order, the values of `Cc1ccc(N(CSc2ccc(Cl)cc2)CSc2ccc(Cl)cc2)cc1` are 1910 nM and 6230 nM.
The corresponding values for `O=C1/C(=C\c2cccn2Cc2ccccc2)c2ccccc2N1c1c(Cl)cccc1Cl` are 118 nM and 463 nM.
In the same order, the values of `CC(=O)O[C@@H]1C[C@]2(C(C)C)O[C@@]1(C)[C@@H]1CCC(C)=C1[C@@H]2OC(=O)/C=C/c1ccccc1` are 24200 nM and above 100000 nM.

These data come from PubChem BioAssay (NCI).
